{"source": "patent US20090053695A1", "about": "“Gene Marker and Use Thereof” (priority 2004, published 2009)", "tested_on": "gene markers (Tap1 or Ctss)", "assay": "Temporal changes in blood expression levels of Tap1 and Ctss after heart transplantation (Example 5, FIG. 4)", "format": "in vivo, rat", "conditions": "s.c. daily dosing as in Example 2; blood mRNA to post-transplantation day 4, relative to pre-transplantation level (as 1)", "method": "To precisely examine changes in the expression level of each of the genes selected here, their mRNAs were quantified. For Irf1, Psmb9, Nos2, and Pim1, the mRNA was quantified by using 25 ng of extracted mRNA together with each primer and probe shown in Table 1, synthesizing cDNA with TaqMan Reverse Transcription Reagents (manufactured by Applied Biosystems) under the conditions shown in Table 1, on an ABI PRISM 7900HT Detection System (manufactured by Applied Biosystems), and using β-actin as an internal control. For Tap1 and Ctss, mRNA was quantified by using 25 ng of extracted mRNA together with each primer and probe (final concentrations: […] each primer, 250 nM TaqMan probe; TaqMan Gene Expression Assays Rn00709612_ml (Tap1) or Rn00569036_ml (Ctss), Applied Biosystems), synthesizing cDNA with TaqMan Reverse Transcription Reagents (manufactured by Applied Biosystems) on an ABI PRISM 7900HT Detection System (manufactured by Applied Biosystems), and using β-actin as an internal control. […]"}
{"molecule": "C=CC[C@@H]1/C=C(\\C)C[C@H](C)C[C@H](OC)[C@H]2O[C@@](O)(C(=O)C(=O)N3CCCC[C@H]3C(=O)O[C@H](/C(C)=C/[C@@H]3CC[C@@H](O)[C@H](OC)C3)[C@H](C)[C@@H](O)CC1=O)[C@H](C)C[C@@H]2OC", "note": "[tacrolimus]", "values": [{"measurement": "expression levels of the gene markers Tap1 and Ctss compared with the rejection group", "value": "suppressed compared with the rejection group, to the level similar to or lower than that of the non-rejection group"}]}
